Assay results from patent US20250213478A1, “CATIONIC LIPID HAVING DISULFIDE BOND, LIPID MEMBRANE STRUCTURE INCLUDING SAME, NUCLEIC ACID INTRODUCTION AGENT AND PHARMACEUTICAL COMPOSITION CONTAINING ANY ONE OF SAME, METHOD FOR INTRODUCING NUCLEIC ACID INTO CELL OR TARGET CELL, AND METHOD FOR PRODUCING CELLULAR PHARMACEUTICAL” (NOF Corporation, priority 2022, published 2025).

What was measured:
[1] = Measurement of Liposomal pKa of LNP (TNS fluorescence); type: physicochemical; details: LNP without nucleic acid, cationic lipid:DOPC:Chol=52.5:7.5:40 + about 1.5 mol DMG-PEG2k; pH at which relative TNS fluorescence intensity was 50%
Protocol: Lipid nanoparticles (LNP) without containing nucleic acid were used for the evaluation of Liposomal pKa.
(§1) A 10 mM ethanol solution of cationic lipid, a 5 mM ethanol solution of DOPC, and a 10 mM ethanol solution of Chol were mixed at desired ratio (cationic lipid:DOPC:Chol=52.5:7.5:40 (molar ratio)) in an Eppendorf tube to achieve the total lipid amount of 720 nmol. To the obtained mixture was further added DMG-PEG2k (2 mM ethanol solution) in an amount of about 1.5 mol with respect to the total amount 100 mol of cationic lipid, DOPC, and Chol, and then ethanol was added to prepare an ethanol solution of the lipid (total amount: 360 μL).
(§2) An acidic malic acid buffer (20 mM, pH 3.0) (1080 μL) containing NaCl at a final concentration of 30 mM and an ethanol solution (360 μL) of lipid were each weighed in a syringe. Using an ultra high-speed nanomedicament producing apparatus NanoAssmblr (manufactured by Precision NanoSystems), LNP was prepared under the conditions of addition rate of acidic buffer solution: 3 mL/min, addition rate of ethanol solution of lipid: 1 mL/min, and syringe holder temperature: 25° C., and collected in a 15 mL tube. MES buffer (pH 6.5) (3000 μL) was added to the 15 mL tube, the obtained mixture was transferred to Amicon Ultra 4, and ultrafiltration was performed under centrifugation conditions (25° C., 1000 g, 6 min) to concentrate the mixture to about 100 μL. The obtained concentrate was diluted with PBS to 4 mL, and the mixture was concentrated again under centrifugation conditions (25° C., 1000 g, 6 min), and this operation was performed twice. The obtained concentrate was diluted with PBS to a lipid concentration of 0.5 mM to give a dispersion containing LNP.
20 mM Citrate buffer, sodium phosphate buffer, and tris HCl buffer, each containing NaCl at a final concentration of 150 mM and adjusted to various pHs within the range of pH 3.0 to 10.0, were prepared. TNS (manufactured by Sigma) was diluted with ultrapure water to 0.6 mM. TNS solution (2 μL), dispersions (12 μL) containing LNP prepared in [Experimental Example 1], 1., and buffers adjusted to various pHs (186 μL) were added to a black 96 well plate. The plate was protected from light and shaken at 400 rpm for 10 min. The fluorescence intensity (excitation: 321 nm/emission: 447 nm) was measured using a plate reader (manufactured by TECAN). The relative fluorescence intensity was calculated as a percentage, with the maximum value of the fluorescence intensity in each LNP being 100% and the minimum value being 0%. Furthermore, the pH at which the relative fluorescence intensity was 50% was taken as Liposomal pKa. In Comparative Example, the cationic lipid described in the aforementioned Table 3 were used.

[2] = Particle size, PdI and zeta potential of mRNA-encapsulating LNPs (dynamic light scattering); type: physicochemical; details: mRNA-encapsulating LNP, cationic lipid:DOPC:Chol=55:5:40 + about 1 mol DMG-PEG2k; for PdI / particle size: dynamic light scattering; for zeta potential: physiological pH
Protocol: as §1, with “lipid:DOPC:Chol=55:5:40” for “lipid:DOPC:Chol=52.5:7.5:40”, “1” for “1.5”
An acidic buffer solution (total amount: 1080 μL) of nucleic acid was prepared by weighing 7.2 μg of mRNA solution (0.6 mg/mL) in a 5 mL tube and adding acidic malate buffer (20 mM, pH 3.0) containing NaCl at a final concentration of 30 mM.
as §2, with “buffer solution of nucleic” for “malic”, “acid” for “acid buffer (20 mM, pH 3.0) (1080 μL) containing NaCl at a final concentration of 30 mM”, “solution” for “solution (360 μL)”, “solution of nucleic acid:” for “solution:”, “2” for “0.5”
The particle size, PdI (Polydispersity Index), and zeta potential of the mRNA-encapsulating LNP prepared by the method of the above-mentioned 1 were measured by a dynamic light scattering method. In Comparative Example, the cationic lipid described in the aforementioned Table 3 were used.

HeLa cells = experiment: Evaluation of in vitro gene expression in HeLa cell (luciferase mRNA-encapsulating LNP); type: cell-based, human; details: for cumulative luciferase luminescence intensity over 24 hr: luciferase mRNA 0.4 μg per dish, LNP cationic lipid:DOPC:Chol:DMG-PEG2k=55:5:40:1; for gene expression activity compared to Comparative Example: result in words
Protocol: LNP encapsulating mRNA that expresses luciferase (cationic lipid:DOPC:Chol:DMG-PEG2k=55:5:40:1 (molar ratio)) was prepared by the method described in [Experimental Example 2], 1.
HeLa cells, which are human cervical cancer cells, were seeded in a 3.5 cm dish at 5.0×10^4 cells/2 mL/Dish 24 hours before transfection. After 24 hours, the medium was exchanged with a culture medium (D-MEM) containing 0.1 mM D-luciferin. Prepared mRNA-encapsulating LNP was diluted with PBS such that the concentration of mRNA was about 8 μg/mL. The diluted mRNA-encapsulating LNP solution (about 50 μL, mRNA: 0.4 μg) was added to the 3.5 cm dish and set in an incubator luminometer KronosDio. The luminescence intensity of luciferase was measured for 2 min every one hour. The cumulative luciferase luminescence intensity for 24 hr was calculated from the obtained time change of expression. For example, “1.0E+06” means “1.0×10^6”. In Comparative Example, the cationic lipid described in the aforementioned Table 3 were used.

pKa [1]	PdI [2]	particle size [2] [nm]	zeta potential [2] [mV]	Structure (SMILES)	cumulative luciferase luminescence intensity over 24 hr (HeLa cells) [RLU]	gene expression activity compared to Comparative Example (HeLa cells)
7.8	0.101	72	5.3	CCCCCCCCCCCCCCCCC(CCCCCCCCCCCCCCCC)C(=O)Oc1ccc(CC(=O)OCCSSCCOC(=O)CCCN(C)C)cc1 [Example 8]	2.83E+08	superior gene expression activity
6.8	0.132	105	5.3	CCCCCCCCCCCCCCCCC(CCCCCCCCCCCCCCCC)C(=O)Oc1ccc(CC(=O)NCCSSCCNC(=O)CN(C)C)cc1 [Example 18]	3.99E+06	–
8.2	0.121	73	13.1	CCCCCCCCCCCCCCCCC(CCCCCCCCCCCCCCCC)C(=O)Oc1ccc(CC(=O)NCCSSCCNC(=O)CCN(C)C)cc1 [Example 19]	2.55E+07	superior gene expression activity

The next lines start with the molecule.

Structure (SMILES)	pKa [1]	PdI [2]	particle size [2] [nm]	zeta potential [2] [mV]	cumulative luciferase luminescence intensity over 24 hr (HeLa cells) [RLU]	gene expression activity compared to Comparative Example (HeLa cells)
CCCCCCCCCCC(CCCCCCCCCC)C(=O)Oc1ccc(CC(=O)OCCSSCCOC(=O)CCCN(C)C)cc1 [Example 5]	7.8	0.081	74	−2.9	2.15E+08	superior gene expression activity
CCCCCCCCCCCCCCCCCCC(CCCCCCCCCCCCCCCCCC)C(=O)Oc1ccc(CC(=O)OCCSSCCOC(=O)CCCN(C)C)cc1 [Example 9]	7.8	0.168	96	12.1	1.25E+08	superior gene expression activity
CCCCCCCCCCCCCCCCC(CCCCCCCCCCCCCCCC)C(=O)Oc1ccc(CC(=O)OCCSSCCOC(=O)CCCN(CC)CC)cc1 [Example 10]	7.4	0.077	80	4.9	1.90E+08	superior gene expression activity
CCCCCCCCCCCCCCCCC(CCCCCCCCCCCCCCCC)C(=O)Oc1ccc(CC(=O)OCCSSCCOC(=O)CCCN2CCCCC2)cc1 [Example 11]	7	0.079	86	−0.9	6.71E+07	superior gene expression activity
CCCCCCCCCCCCCCCCC(CCCCCCCCCCCCCCCC)C(=O)Oc1ccc(CC(=O)OCCSSCCOC(=O)CCCN(CCC)CCC)cc1 [Example 12]	6.2	0.071	84	−4.4	1.13E+05	–
CCCCCCCC/C=C\CCCCCCCC(=O)Oc1ccc(CC(=O)OCCSSCCOC(=O)CCCN(C)C)cc1OC(=O)CCCCCCC/C=C\CCCCCCCC [Example 15]	6.3	0.112	65	6.0	8.22E+07	superior gene expression activity
CCCCCCCCCCCCCCCCC(CCCCCCCCCCCCCCCC)C(=O)Oc1ccc(CC(=O)OCCSSCCN(CC)CC)cc1 [Example 17]	6.2	0.064	105	−2.6	8.39E+04	–
